In PubChem BioAssay (NCI):
Values joined by “and” are separate entries in the source; they are usually repeats but may differ in a detail not shown here. Equal entries are not always repeated.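 Each compound was tested at five concentrations against cells in 96-well plates for 48 hours. GI50: concentration for 50% inhibition of growth. TGI: total growth inhibition.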

Key:
Assay in all cases: NCI tumour cell line growth inhibition, 48 h
A549 NSCLC = system: A549 NSCLC
ACHN renal = system: ACHN renal
DLD-1 colon = system: DLD-1 colon
DMS 114 small cell lung = system: DMS 114 small cell lung
HCT-116 colon = system: HCT-116 colon
KM20L2 colon = system: KM20L2 colon
M14 melanoma = system: M14 melanoma
TK-10 renal = system: TK-10 renal
SNB-78 CNS = system: SNB-78 CNS
P388 leukemia = system: P388 leukemia
P388/ADR leukemia = system: P388/ADR leukemia
MDA-MB-231 breast = system: MDA-MB-231 breast
MDA-MB-435 = system: MDA-MB-435

`Cc1cccc(C(C)C)c1NC(=O)CC1Sc2ccccc2NC1=O` (stereo unspecified) showed a TGI (A549 NSCLC) of over 100 µM, a TGI (ACHN renal) of over 100 µM and a TGI (DLD-1 colon) of over 100 µM. It also gave a TGI (DMS 114 small cell lung) of 85 µM, a TGI (HCT-116 colon) of over 100 µM and a TGI (KM20L2 colon) of over 100 µM. The TGI (M14 melanoma) was over 100 µM and the TGI (TK-10 renal) was over 100 µM.

`O=C(CC(=O)c1ccccc1)CC(O)(c1ccccc1)c1ccccc1` showed a TGI (ACHN renal) of 24.5 µM, a TGI (DLD-1 colon) of 26.6 µM and a TGI (DMS 114 small cell lung) of 5.73 µM. It also gave a TGI (HCT-116 colon) of 16.6 µM, a TGI (KM20L2 colon) of 19.5 µM and a TGI (M14 melanoma) of 14.9 µM. The TGI (SNB-78 CNS) was 81 µM and the TGI (TK-10 renal) was 42.1 µM.

For `COc1cc(/C=C/C(=O)O)ccc1C(=O)OCc1ccccc1`, the TGI (A549 NSCLC) was over 100 µM, the TGI (DLD-1 colon) was over 100 µM and the TGI (DMS 114 small cell lung) was over 100 µM. The TGI (HCT-116 colon) was over 100 µM, the TGI (KM20L2 colon) was over 100 µM and the TGI (P388 leukemia) was over 100 µM. For the same molecule, the TGI (P388/ADR leukemia) was over 100 µM and the TGI (SNB-78 CNS) was over 100 µM.

In the case of `CCOC(=O)c1csc(NC(=O)CN2CCN(C)CC2)n1`, the TGI (A549 NSCLC) is reported as over 100 µM, the TGI (ACHN renal) is reported as over 100 µM and the TGI (M14 melanoma) is reported as over 100 µM. For the same molecule, the TGI (MDA-MB-231 breast) was over 100 µM, the TGI (MDA-MB-435) was over 100 µM and the TGI (TK-10 renal) was over 100 µM.

`CCCC(O)C(NC(=O)CCl)C(=O)O` (stereo unspecified) showed a TGI (A549 NSCLC) of over 100 µM, a TGI (DLD-1 colon) of over 100 µM and a TGI (DMS 114 small cell lung) of over 100 µM. The TGI (HCT-116 colon) was over 100 µM, the TGI (KM20L2 colon) was over 100 µM and the TGI (P388 leukemia) was over 100 µM. For the same molecule, the TGI (P388/ADR leukemia) was over 100 µM and the TGI (SNB-78 CNS) was over 100 µM.

`CC(=O)Nc1ccc(-c2nc3ccccc3s2)cc1` was tested, and the TGI (ACHN renal) was 92.3 µM, the TGI (HCT-116 colon) was over 100 µM and the TGI (M14 melanoma) was over 100 µM. It also gave a TGI (MDA-MB-231 breast) of 96.1 µM, a TGI (MDA-MB-435) of over 100 µM and a TGI (TK-10 renal) of over 100 µM.

For `CC12CCC3C(CCC4=CC(O)CCC43C=O)C1(O)CCC2c1ccc(=O)oc1` (stereo unspecified), the GI50 (A549 NSCLC) was 0.00452 µM, the TGI (A549 NSCLC) was 0.02 µM and the GI50 (DLD-1 colon) was 0.00769 µM. It also gave a TGI (DLD-1 colon) of 0.0571 µM, a TGI (DMS 114 small cell lung) of 0.00996 µM and a GI50 (HCT-116 colon) of 0.00453 µM. The TGI (HCT-116 colon) was 0.0327 µM and 0.0583 µM, the GI50 (KM20L2 colon) was 0.05 µM and the TGI (KM20L2 colon) was 0.0365 µM and 0.0562 µM. For the same molecule, the GI50 (P388 leukemia) was 80.6 µM, the GI50 (P388/ADR leukemia) was 89 µM and the GI50 (SNB-78 CNS) was 0.05 µM. For the same molecule, the TGI (SNB-78 CNS) was 0.202 µM and 0.0635 µM.

`COc1cc2c3c(c4cc(OC)c(OC)cc4c2cc1OC)C(=O)C1CCC(=O)N1C3` (stereo unspecified) showed a TGI (ACHN renal) of 59.7 µM, a TGI (MDA-MB-231 breast) of over 100 µM and a TGI (MDA-MB-435) of over 100 µM. For the same molecule, the TGI (TK-10 renal) was 54.5 µM.
